Measured values taken from paper PMC6691788, “Design and synthesis of phthalazine-based compounds as potent anticancer agents with potential antiangiogenic activity via VEGFR-2 inhibition” (Journal of Enzyme Inhibition and Medicinal Chemistry, 2019).

Legend:
Assay in all cases: NCI 60 cell panel SRB screen
RXF 393 = format: cell-based; conditions: Homo sapiens; RXF 393, single dose 10 μM; read-out: percent cell growth promotion
PC-3 = format: cell-based; conditions: Homo sapiens; PC-3, single dose 10 μM; read-out: percent cell growth promotion
KM12 = format: cell-based; conditions: Homo sapiens; KM12, single dose 10 μM; read-out: percent cell growth promotion
OVCAR-3 = format: cell-based; conditions: Homo sapiens; OVCAR-3, single dose 10 μM; read-out: percent cell growth promotion
UO-31 = format: cell-based; conditions: Homo sapiens; UO-31, single dose 10 μM; read-out: percent cell growth promotion
UACC-257 = format: cell-based; conditions: Homo sapiens, UACC-257, read-out: percent cell growth promotion
HCC-2998 = format: cell-based; conditions: Homo sapiens; HCC-2998, single dose 10 μM; read-out: percent cell growth promotion
HOP-92 = format: cell-based; conditions: Homo sapiens; HOP-92, single dose 10 μM; read-out: percent cell growth promotion
NCI-H460 = format: cell-based; conditions: Homo sapiens; NCI-H460, single dose 10 μM; read-out: percent cell growth promotion
HL-60(TB) = format: cell-based; conditions: Homo sapiens, single dose 10 μM, read-out: percent cell growth promotion
SF-268 = format: cell-based; conditions: Homo sapiens; SF-268, single dose 10 μM; read-out: percent cell growth promotion
TK-10 = format: cell-based, human; conditions: Homo sapiens; TK-10, single dose 10 μM; read-out: percent cell growth promotion
OVCAR-8 = format: cell-based; conditions: Homo sapiens; OVCAR-8, single dose 10 μM; read-out: percent cell growth promotion
SK-OV-3 = format: cell-based; conditions: Homo sapiens; SK-OV-3, single dose 10 μM; read-out: percent cell growth promotion
MOLT-4 = format: cell-based; conditions: Homo sapiens; MOLT-4, single dose 10 μM; read-out: percent cell growth promotion
A549/ATCC = format: cell-based; conditions: Homo sapiens, single dose 10 μM, read-out: percent cell growth promotion
HT29 = format: cell-based; conditions: Homo sapiens, HT-29; HT29, single dose 10 μM; read-out: percent cell growth promotion
MDA-MB-468 = format: cell-based; conditions: Homo sapiens, MDA-MB-468; MDA-MBA-468, single dose 10 μM; read-out: percent cell growth promotion
Experimental: The human tumor cell lines of the cancer-screening panel were grown in RPMI 1640 medium containing 5% fetal bovine serum and […] L-glutamine. For a typical screening experiment, cells are inoculated into 96 well microtiter plates in 100 ml at plating densities ranging from 5000 to 40,000 cells/well depending on the doubling time of individual cell lines. After cell inoculation, the microtiter plates are incubated at 37 °C, 5% CO2, 95% air and 100%
relative humidity for 24 h prior to addition of experimental drugs. After 24 h, two plates of each cell line are fixed in situ with TCA, to represent a measurement of the cell population for each cell line at the time of drug addition (Tz). Experimental drugs are dissolved in dimethyl sulfoxide at 400-fold the desired final maximum test concentration and stored frozen prior to use. At the time of drug addition, an aliquot of frozen concentrate is thawed and diluted to twice the desired final maximum test concentration with complete medium containing […] Gentamicin. Additional four, 10-fold or ½log serial dilutions are made to provide a total of five drug concentrations plus control. Aliquots of […] of these different drug dilutions are added to the appropriate microtiter wells already containing 100 ml of medium, resulting in the required final drug concentrations. Following drug addition, the plates are incubated for an additional 48 h at 37 °C, 5% CO2, 95% air, and 100% relative humidity. For adherent cells, the assay is terminated by the addition of cold TCA. Cells are fixed in situ by the gentle addition of […] of cold 50% (w/v) TCA (final concentration,10% TCA) and incubated for 60 min at 4 °C. The supernatant is discarded, and the plates are washed five times with tap water and air dried. Sulforhodamine B (SRB) solution (100 ml) at 0.4% (w/v) in 1% acetic acid is added to each well, and plates are incubated for 10 min at room temperature. After staining, unbound dye is removed by washing five times with 1% acetic acid and the plates are air dried. Bound stain is subsequently dissolved with 10 μM trizma base, and the absorbance is read on an automated plate reader at a wavelength of 515 nm. For suspension cells, the methodology is the same except that the assay is terminated by fixing settled cells at the bottom of the wells by gently adding […] of 80% TCA (final concentration, 16% TCA).
Using the seven absorbance measurements [time zero, (Tz), control growth, (C), and test growth in the presence of drug at the five concentration levels (Ti)], the percentage growth is calculated at each of the drug concentrations levels. Percentage growth inhibition is calculated as: [(Ti -Tz)/(C - Tz)] x 100 for concentrations for which Ti>/ ¼ Tz and [(Ti -Tz) / Tz] x100 for concentrations for which Ti <Tz.
Three dose response parameters are calculated for each experimental agent. Growth inhibition of 50% (GI50) is calculated from [(Ti -Tz)/(C - Tz)] x 100 =50, which is the drug concentration resulting in a 50% reduction in the net protein increase (as measured by SRB staining) in control cells during the drug incubation. The drug concentration resulting in total growth inhibition (TGI) is calculated from Ti ¼ Tz. The LC50 (concentration of drug resulting in a 50% reduction in the measured protein at the end of the drug treatment as compared to that at the beginning) indicating a net loss of cells following treatment is calculated from [(Ti - Tz) / Tz] x100 = -50. Values are calculated for each of these three parameters if the level of activity is reached; however, if the effect is not reached or is exceeded, the value for that parameter is expressed as greater or less than the maximum or minimum concentration tested.

NCI/ADR-RES = format: cell-based; conditions: Homo sapiens, single dose 10 μM, read-out: percent cell growth promotion

Structure (SMILES) | activity at 10 µM (RXF 393) [%] | activity at 10 µM (PC-3) [%] | activity at 10 µM (KM12) [%] | activity at 10 µM (OVCAR-3) [%] | activity at 10 µM (UO-31) [%] | activity at 10 µM (UACC-257) [%] | activity at 10 µM (HCC-2998) [%] | activity at 10 µM (HOP-92) [%] | activity at 10 µM (NCI-H460) [%] | activity at 10 µM (HL-60(TB)) [%] | activity at 10 µM (SF-268) [%] | activity at 10 µM (TK-10) [%] | activity at 10 µM (OVCAR-8) [%] | activity at 10 µM (SK-OV-3) [%] | activity at 10 µM (MOLT-4) [%] | activity at 10 µM (A549/ATCC) [%] | activity at 10 µM (HT29) [%] | activity at 10 µM (MDA-MB-468) [%] | activity at 10 µM (NCI/ADR-RES) [%]
O=C(Nc1ccc(Nc2nncc3ccccc23)cc1)c1ccc(Cl)cc1 [Compound 5b, 4-Chloro-N-(4-(phthalazin-1-ylamino)phenyl)benzamide] | 115 | 91.6 | 103 | 101 | 78.6 | 93 | 113 | 97.5 | 101 | 103 | 98 | 116 | 96.2 | 87.3 | 97.3 | 101 | 104 | 101 | 103
Cc1nnc(Nc2ccc(NC(=O)c3ccc(Cl)cc3)cc2)c2ccccc12 [Compound 5d, 4-Chloro-N-(4–(4-methylphthalazin-1-ylamino)phenyl)benzamide] | 98.7 | 72.6 | 101 | 93.3 | 57.8 | 97.4 | 125 | 55.4 | 96.4 | 103 | 90 | 109 | 93.1 | 83.5 | 83.5 | 97.9 | 94.3 | 104 | 96
